Reference: patent publication US9695155B2, “Herbicidal substituted pyrimidinyloxy benzene compounds” (E. I. DU PONT DE NEMOURS AND COMPANY, priority 2013, dated 2017)

Legend:
[1] = system: winter wheat; test: Test D preemergence; type: in vivo, Triticum aestivum
Method in brief: (§1)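 Visual rating vs untreated controls, 0 = no effect, 100 = complete control, taken 7–21 d after treatment. Pre: silt loam soil. Post: potting medium, plants 2–18 cm, 1–4 leaf. Formulation: non-phytotoxic solvent mix + surfactant.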

[2] = system: spring wheat; test: Test D preemergence; type: in vivo, Triticum aestivum
Method in brief: as §1

[3] = system: chamomile; test: Test D postemergence; type: in vivo, Matricaria inodora
Method in brief: as §1

[4] = system: chickweed; test: Test D postemergence; type: in vivo, Stellaria media
Method in brief: as §1

[5] = system: wild oat; test: Test D postemergence; type: in vivo, Avena fatua
Method in brief: as §1

[6] = system: galium; test: Test D preemergence; type: in vivo, Galium aparine
Method in brief: as §1

[7] = system: Italian ryegrass; test: Test D postemergence; type: in vivo, Lolium multiflorum
Method in brief: as §1

[8] = system: wild radish; test: Test D preemergence; type: in vivo, Raphanus raphanistrum
Method in brief: as §1

[9] = system: kochia; test: Test D preemergence; type: in vivo, Kochia scoparia
Method in brief: as §1

[10] = system: Italian ryegrass; test: Test D preemergence; type: in vivo, Lolium multiflorum
Method in brief: as §1

[11] = system: winter barley; test: Test D preemergence; type: in vivo, Hordeum vulgare
Method in brief: as §1

[12] = system: spring barley; test: Test D preemergence; type: in vivo, Hordeum vulgare
Method in brief: as §1

[13] = 16 g ai/ha, scale 0 (no effect) to 100 (complete control)
[14] = 31 g ai/ha, scale 0 (no effect) to 100 (complete control)
[15] = 31 g ai/ha, scale 0 to 100 (0 no effect, 100 complete control)
[16] = 62 g ai/ha, scale 0 to 100 (0 no effect, 100 complete control)
[17] = 125 g ai/ha, scale 0 to 100 (0 no effect, 100 complete control)

Q: `FCc1cccc(Oc2ncc(Cl)cn2)c1-n1cc(I)cn1` [Compound 245] was tested. Which “Plant response rating, Wheat, Winter” value [1, 13] did it give?
A: The value was 10.

Q: And the “Plant response rating, Wheat, Winter” value [1, 14]?
A: The value was 15.

Q: And the “Plant response rating, Wheat, Winter” value ([1]; 125 g ai/ha, scale 0-100)?
A: Its value is 30.

Q: And the “Plant response rating, Wheat, Spring” value [2, 13]?
A: Its value is 5.

Q: What about the “Plant response rating, Wheat, Spring” value [2, 14] of the same compound?
A: Its value is 10.

Q: What about the “Plant response rating, Wheat, Spring” value ([2]; 125 g ai/ha, scale 0-100) of the same compound?
A: Its value is 20.

Q: And the “Plant response rating, Chamomile” value ([3]; 16 g ai/ha, scale 0-100)?
A: The value was 30.

Q: What about the “Plant response rating, Chamomile” value [3, 15] of the same compound?
A: The value was 30.

Q: And the “Plant response rating, Chamomile” value [3, 16]?
A: Its value is 45.

Q: What about the “Plant response rating, Chamomile” value [3, 17] of the same compound?
A: The value was 40.

Q: What about the “Plant response rating, Chickweed” value ([4]; 16 g ai/ha, scale 0-100) of the same compound?
A: The value was 45.

Q: What about the “Plant response rating, Chickweed” value [4, 15] of the same compound?
A: The value was 75.

Q: And the “Plant response rating, Chickweed” value [4, 16]?
A: The value was 95.

Q: And the “Plant response rating, Chickweed” value [4, 17]?
A: The value was 98.

Q: And the “Plant response rating, Oat, Wild” value ([5]; 16 g ai/ha, scale 0-100)?
A: Its value is 0.

Q: And the “Plant response rating, Oat, Wild” value [5, 15]?
A: The value was 0.

Q: What about the “Plant response rating, Oat, Wild” value [5, 16] of the same compound?
A: Its value is 10.

Q: What about the “Plant response rating, Oat, Wild” value [5, 17] of the same compound?
A: The value was 10.

Q: And the “Plant response rating, Galium” value [6, 13]?
A: Its value is 0.

Q: What about the “Plant response rating, Galium” value ([6]; 31 g ai/ha, scale 0-100) of the same compound?
A: Its value is 0.

Q: What about the “Plant response rating, Galium” value ([6]; 62 g ai/ha, scale 0-100) of the same compound?
A: The value was 5.

Q: And the “Plant response rating, Galium” value ([6]; 125 g ai/ha, scale 0-100)?
A: Its value is 85.

Q: What about the “Plant response rating, Ryegrass, Italian” value ([7]; 16 g ai/ha, scale 0-100) of the same compound?
A: The value was 0.

Q: What about the “Plant response rating, Ryegrass, Italian” value [7, 15] of the same compound?
A: Its value is 10.

Q: And the “Plant response rating, Ryegrass, Italian” value [7, 16]?
A: The value was 20.

Q: And the “Plant response rating, Ryegrass, Italian” value [7, 17]?
A: Its value is 20.

Q: What about the “Plant response rating, Radish, Wild” value [8, 13] of the same compound?
A: Its value is 0.

Q: What about the “Plant response rating, Radish, Wild” value [8, 14] of the same compound?
A: Its value is 0.

Q: What about the “Plant response rating, Radish, Wild” value ([8]; 125 g ai/ha, scale 0-100) of the same compound?
A: Its value is 85.

Q: And the “Plant response rating, Kochia” value [9, 13]?
A: Its value is 0.

Q: What about the “Plant response rating, Kochia” value ([9]; 31 g ai/ha, scale 0-100) of the same compound?
A: Its value is 0.

Q: And the “Plant response rating, Kochia” value ([9]; 62 g ai/ha, scale 0-100)?
A: Its value is 75.

Q: And the “Plant response rating, Kochia” value ([9]; 125 g ai/ha, scale 0-100)?
A: The value was 75.

Q: And the “Plant response rating, Ryegrass, Italian” value [10, 13]?
A: Its value is 15.

Q: What about the “Plant response rating, Ryegrass, Italian” value [10, 14] of the same compound?
A: The value was 15.

Q: What about the “Plant response rating, Ryegrass, Italian” value ([10]; 125 g ai/ha, scale 0-100) of the same compound?
A: The value was 40.

Q: And the “Plant response rating, Barley, Winter” value [11, 13]?
A: Its value is 0.

Q: And the “Plant response rating, Barley, Winter” value ([11]; 31 g ai/ha, scale 0-100)?
A: Its value is 35.

Q: And the “Plant response rating, Barley, Winter” value ([11]; 62 g ai/ha, scale 0-100)?
A: Its value is 25.

Q: What about the “Plant response rating, Barley, Winter” value ([11]; 125 g ai/ha, scale 0-100) of the same compound?
A: The value was 40.

Q: What about the “Plant response rating, Barley, Spring” value [12, 13] of the same compound?
A: Its value is 0.

Q: And the “Plant response rating, Barley, Spring” value ([12]; 31 g ai/ha, scale 0-100)?
A: The value was 5.

Q: What about the “Plant response rating, Barley, Spring” value ([12]; 62 g ai/ha, scale 0-100) of the same compound?
A: Its value is 15.

Q: What about the “Plant response rating, Barley, Spring” value ([12]; 125 g ai/ha, scale 0-100) of the same compound?
A: Its value is 35.
